Experimental data: patent publication US6413935B1, “Induction of immune response against desired determinants” (priority 1993, dated 2002)
Where “and” joins values, the source holds several entries; their conditions need not be identical. Equal values may be shown once. Read-outs that look alike come from different tables or passages of the source. Non-standard residues stand in square brackets, D forms with d. Residues, ends and D or L forms follow the SMILES beside them. Cha = N[C@@H](CC1CCCCC1)C(=O)O

Assays:
[1] = tested on: human PBMC T cell lines; type: cell-based
[2] = tested on: DR5; details: read-out: PADRE Class II Binding Affinities DR5
[3] = target: DR4w4 (Homo sapiens, UniProt P01903+P01911, A100K/A169T/F76Y/I96L/K127E/L162R/M171V/N62H/P40V/Q125Y/R42H/S133A/S149N/S66Y/V115G/V209L/W38E); experiment: biochemical; details: PADRE Class II Binding Affinities DR4w4, Table IX
[4] = target: DR2w2a (Homo sapiens, UniProt P01903+Q30154); experiment: biochemical; details: PADRE Class II Binding Affinities DR2w282, Table IX
[5] = target: DR1 (Homo sapiens, UniProt P01903+P01911, A100R/D57E/F55L/F60I/F76Y/I96L/L162R/M171V/P40L/Q125E/R42F/V115G/Y59C); experiment: biochemical; details: PADRE Class II Binding Affinities DR1, Table IX
[6] = tested on: DR7; details: read-out: PADRE Class II Binding Affinities DR7
[7] = tested on: DQ3.1; details: read-out: PADRE Class II Binding Affinities; Table VIII A

DR2w2a, sequence (P01903 26-254): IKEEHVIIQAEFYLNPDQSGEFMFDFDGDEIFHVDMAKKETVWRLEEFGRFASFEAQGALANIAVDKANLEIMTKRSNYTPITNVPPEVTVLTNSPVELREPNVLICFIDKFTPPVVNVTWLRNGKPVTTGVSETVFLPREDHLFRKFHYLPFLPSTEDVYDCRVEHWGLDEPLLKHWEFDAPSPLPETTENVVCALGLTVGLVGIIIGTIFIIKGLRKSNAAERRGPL
DR2w2a, sequence (Q30154 30-266): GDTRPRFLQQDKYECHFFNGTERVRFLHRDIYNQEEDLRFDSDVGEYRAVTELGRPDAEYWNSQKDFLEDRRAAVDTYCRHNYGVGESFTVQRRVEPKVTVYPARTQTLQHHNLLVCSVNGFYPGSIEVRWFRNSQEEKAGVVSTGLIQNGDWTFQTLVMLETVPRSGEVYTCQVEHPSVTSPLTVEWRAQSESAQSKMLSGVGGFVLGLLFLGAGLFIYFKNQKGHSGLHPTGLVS

## CC(C)C[C@H](NC(=O)[C@@H](NC(=O)[C@H](CC(N)=O)NC(=O)[C@H](C)NC(=O)[C@H](C)NC(=O)[C@@H](NC(=O)[C@H](CC1CCCCC1)NC(=O)[C@H](CCCCN)NC(=O)[C@@H](C)N)C(C)C)[C@@H](C)O)C(=O)N[C@@H](CCCCN)C(=O)N[C@@H](C)C(=O)N[C@@H](C)C(=O)N[C@H](C)C(N)=O [Peptide 965.081]
[1]
  Donors with significant (>10,000 cpm) T cell response / donors tested, second stimulation: 1/5
  Donors with significant (>10,000 cpm) T cell response / donors tested, third stimulation: 2/5
[2]; Table IX, listed as 965.082
  IC50: 12.5 nM

## CC(C)C[C@H](NC(=O)[C@@H](NC(=O)[C@@H](NC(=O)[C@H](C)NC(=O)[C@H](Cc1c[nH]c2ccccc12)NC(=O)[C@@H](NC(=O)[C@H](CC1CCCCC1)NC(=O)[C@H](CCCCN)NC(=O)[C@@H](C)N)C(C)C)C(C)C)[C@@H](C)O)C(=O)N[C@@H](CCCCN)C(=O)N[C@@H](C)C(=O)N[C@@H](C)C(=O)N[C@H](C)C(N)=O [Peptide 965.042]
[3]
  IC50: 1 nM
[4]
  IC50: 9.5 nM
[5]
  IC50: 0.2 nM

## CC(C)C[C@H](NC(=O)[C@@H](NC(=O)[C@H](CCCCN)NC(=O)[C@H](C)NC(=O)[C@H](C)NC(=O)[C@@H](NC(=O)[C@H](CC1CCCCC1)NC(=O)[C@H](CCCCN)NC(=O)[C@@H](C)N)C(C)C)[C@@H](C)O)C(=O)N[C@@H](CCCCN)C(=O)N[C@@H](C)C(=O)N[C@@H](C)C(=O)N[C@H](C)C(N)=O [Peptide 965.14]
[1]
  Donors with significant (>10,000 cpm) T cell response / donors tested, second stimulation: 1/5
  Donors with significant (>10,000 cpm) T cell response / donors tested, third stimulation: 3/5
[2]; Table IX
  IC50: 34.5 nM

## CC(C)C[C@H](NC(=O)[C@@H](NC(=O)[C@H](Cc1ccc(O)cc1)NC(=O)[C@H](C)NC(=O)[C@H](Cc1c[nH]c2ccccc12)NC(=O)[C@@H](NC(=O)[C@H](CC1CCCCC1)NC(=O)[C@H](CCCCN)NC(=O)[C@@H](C)N)C(C)C)[C@@H](C)O)C(=O)N[C@@H](CCCCN)C(=O)N[C@@H](C)C(=O)N[C@@H](C)C(=O)N[C@H](C)C(N)=O [Peptide 965.041]
[3]
  IC50: 0.5 nM
[4]
  IC50: 2.5 nM
[5]
  IC50: 0.5 nM
[2]; Table IX
  IC50: 4.7 nM

## CC(C)C[C@H](NC(=O)[C@@H](NC(=O)[C@H](CC(N)=O)NC(=O)[C@H](C)NC(=O)[C@H](CCCNC(=N)N)NC(=O)[C@@H](NC(=O)[C@H](CC1CCCCC1)NC(=O)[C@H](CCCNC(=N)N)NC(=O)[C@@H](C)N)C(C)C)[C@@H](C)O)C(=O)N[C@@H](CCCCN)C(=O)N[C@@H](C)C(=O)N[C@@H](C)C(=O)N[C@H](C)C(N)=O [Peptide 965.06]
[3]
  IC50: 1.3 nM
[4]
  IC50: 6.4 nM
[5]
  IC50: 0.8 nM
[6]; Table IX
  IC50: 73.5 nM
[2]; Table IX
  IC50: 5.6 nM

## CSCC[C@H](NC(=O)[C@@H](NC(=O)[C@H](CC1CCCCC1)NC(=O)[C@H](CCCCN)NC(=O)[C@@H](C)NC(=O)[C@H](CO)NC(=O)[C@H](CO)NC(=O)[C@@H](N)CCCCN)C(C)C)C(=O)N[C@@H](C)C(=O)N[C@@H](C)C(=O)N[C@H](C(=O)N[C@@H](CC(C)C)C(=O)N[C@@H](CCCCN)C(=O)N[C@@H](C)C(=O)N[C@@H](C)C(=O)N[C@H](C)C(N)=O)[C@@H](C)O [Peptide 965.19]
[4]
  IC50: 23.5 nM

## CC(C)[C@H](NC(=O)[C@@H](NC(=O)[C@H](C)NC(=O)[C@H](C)NC(=O)[C@H](C)NC(=O)[C@H](C)NC(=O)[C@H](CC1CCCCC1)NC(=O)[C@H](C)NC(=O)[C@@H](C)N)[C@@H](C)O)C(=O)N[C@@H](CCCCN)C(=O)N[C@@H](C)C(=O)N[C@@H](C)C(=O)N[C@H](C)C(N)=O [Peptide 906.32]
[7]
  IC50: 26 nM
[6]
  IC50: 58.1 nM
[2]
  IC50: 4.2 nM

## CC(C)C[C@H](NC(=O)[C@@H](NC(=O)[C@H](C)NC(=O)[C@H](C)NC(=O)[C@H](C)NC(=O)[C@@H](NC(=O)[C@H](CC1CCCCC1)NC(=O)[C@H](CCCCN)NC(=O)[C@@H](C)N)C(C)C)[C@@H](C)O)C(=O)N[C@@H](CCCCN)C(=O)N[C@@H](C)C(=O)N[C@@H](C)C(=O)N[C@H](C)C(N)=O [Peptide 965.16]
[1]
  Donors with significant (>10,000 cpm) T cell response / donors tested, second stimulation: 0/5
  Donors with significant (>10,000 cpm) T cell response / donors tested, third stimulation: 1/5

## CC(C)C[C@H](NC(=O)[C@@H](NC(=O)[C@H](CCCCN)NC(=O)[C@H](C)NC(=O)[C@H](C)NC(=O)[C@H](C)NC(=O)[C@H](CC1CCCCC1)NC(=O)[C@H](C)NC(=O)[C@@H](C)N)[C@@H](C)O)C(=O)N[C@@H](CCCCN)C(=O)N[C@@H](C)C(=O)N[C@@H](C)C(=O)N[C@H](C)C(N)=O [Peptide 906.23]
[7]
  IC50: 26.1 nM
[6]
  IC50: 29.6 nM
[2]
  IC50: 2.2 nM

## CC(C)C[C@H](NC(=O)[C@@H](NC(=O)[C@H](Cc1c[nH]c2ccccc12)NC(=O)[C@H](C)NC(=O)[C@H](CCCCN)NC(=O)[C@@H](NC(=O)[C@H](CC1CCCCC1)NC(=O)[C@H](CCCCN)NC(=O)[C@@H](C)N)C(C)C)[C@@H](C)O)C(=O)N[C@@H](CCCCN)C(=O)N[C@@H](C)C(=O)N[C@@H](C)C(=O)N[C@H](C)C(N)=O [Peptide 965.021]
[4]
  IC50: 5.7 nM and 9 nM
[5]
  IC50: 0.8 nM and 0.7 nM
[6]; Table IX
  IC50: 89.3 nM
[6]; Table IX, listed as 965.022
  IC50: 338 nM
[2]; Table IX
  IC50: 4.1 nM
[2]; Table IX, listed as 965.022
  IC50: 1.1 nM

## C[C@H](NC(=O)[C@H](C)NC(=O)[C@H](C)NC(=O)[C@H](CC1CCCCC1)NC(=O)[C@H](C)NC(=O)[C@@H](C)N)C(=O)N[C@@H](C)C(=O)N[C@H](C(=O)N[C@@H](CCC(N)=O)C(=O)N[C@@H](CCCCN)C(=O)N[C@@H](C)C(=O)N[C@@H](C)C(=O)N[C@H](C)C(N)=O)[C@@H](C)O [Peptide 906.31]
[7]
  IC50: 52.6 nM
[6]; Table VIII A
  IC50: 100 nM
[2]; Table VIII A
  IC50: 11.8 nM

## CC(C)C[C@H](NC(=O)[C@@H](NC(=O)[C@H](C)NC(=O)[C@H](C)NC(=O)[C@H](C)NC(=O)[C@H](C)NC(=O)[C@H](CC1CCCCC1)NC(=O)[C@H](C)NC(=O)[C@@H](C)N)[C@@H](C)O)C(=O)N[C@@H](CCCCN)C(=O)N[C@H](C(=O)N[C@@H](C)C(=O)N[C@H](C)C(N)=O)C(C)C [Peptide 906.43] (H-[dA]A[Cha]AAAATLKVA[dA]-NH2; N-terminus and C-terminus assumed)
[7]
  IC50: 24.7 nM
[6]; Table VIII A
  IC50: 49 nM
[2]; Table VIII A
  IC50: 9.5 nM

## CC(C)C[C@H](NC(=O)[C@@H](NC(=O)[C@H](C)NC(=O)[C@H](C)NC(=O)[C@H](C)NC(=O)[C@H](C)NC(=O)[C@H](CC1CCCCC1)NC(=O)[C@H](C)NC(=O)[C@@H](C)N)[C@@H](C)O)C(=O)N[C@@H](CCCNC(=N)N)C(=O)N[C@@H](C)C(=O)N[C@@H](C)C(=O)N[C@H](C)C(N)=O [Peptide 906.39] (H-[dA]A[Cha]AAAATLRAA[dA]-NH2; N-terminus and C-terminus assumed)
[7]
  IC50: 28.8 nM
[6]
  IC50: 86.2 nM
[2]
  IC50: 4.3 nM

## CC(C)C[C@H](NC(=O)[C@@H](NC(=O)[C@H](C)NC(=O)[C@H](Cc1ccccc1)NC(=O)[C@H](C)NC(=O)[C@H](C)NC(=O)[C@H](CC1CCCCC1)NC(=O)[C@H](C)NC(=O)[C@@H](C)N)[C@@H](C)O)C(=O)N[C@@H](CCCCN)C(=O)N[C@@H](C)C(=O)N[C@@H](C)C(=O)N[C@H](C)C(N)=O [Peptide 906.22] (H-[dA]A[Cha]AAFATLKAA[dA]-NH2; N-terminus and C-terminus assumed)
[7]
  IC50: 1880 nM
[6]
  IC50: 59.4 nM
[2]
  IC50: 3.4 nM

## C[C@H](NC(=O)[C@H](C)NC(=O)[C@H](C)NC(=O)[C@H](CC1CCCCC1)NC(=O)[C@H](C)NC(=O)[C@@H](C)N)C(=O)N[C@@H](C)C(=O)N[C@H](C(=O)N[C@@H](Cc1ccccc1)C(=O)N[C@@H](CCCCN)C(=O)N[C@@H](C)C(=O)N[C@@H](C)C(=O)N[C@H](C)C(N)=O)[C@@H](C)O [Peptide 906.33]
[7]
  IC50: 13.4 nM
[6]; Table VIII A
  IC50: 43.1 nM
[2]; Table VIII A
  IC50: 2.4 nM

## CC(C)C[C@H](NC(=O)[C@@H](NC(=O)[C@H](Cc1c[nH]c2ccccc12)NC(=O)[C@H](C)NC(=O)[C@H](Cc1ccc(O)cc1)NC(=O)[C@@H](NC(=O)[C@H](CC1CCCCC1)NC(=O)[C@H](CCCCN)NC(=O)[C@@H](C)N)C(C)C)[C@@H](C)O)C(=O)N[C@@H](CCCCN)C(=O)N[C@@H](C)C(=O)N[C@@H](C)C(=O)N[C@H](C)C(N)=O [Peptide 965.051]
[3]
  IC50: 0.3 nM and 0.8 nM
[4]
  IC50: 7.1 nM and 9 nM
[5]
  IC50: 0.5 nM and 0.7 nM
[6]; Table IX, listed as 965.052
  IC50: 25.5 nM
[2]; Table IX
  IC50: 5.7 nM
[2]; Table IX, listed as 965.052
  IC50: 6.9 nM

## CC(C)C[C@H](NC(=O)[C@@H](NC(=O)[C@H](C)NC(=O)[C@H](C)NC(=O)[C@H](C)NC(=O)[C@H](C)NC(=O)[C@H](CC1CCCCC1)NC(=O)[C@H](C)NC(=O)[C@@H](C)N)[C@@H](C)O)C(=O)N[C@@H](CCCCN)C(=O)N[C@@H](C)C(=O)N[C@@H](CCC(N)=O)C(=O)N[C@H](C)C(N)=O [Peptide 906.48] (H-[dA]A[Cha]AAAATLKAQ[dA]-NH2; N-terminus and C-terminus assumed)
[7]
  IC50: 18.4 nM
[6]; Table VIII A
  IC50: 96.2 nM
[2]; Table VIII A
  IC50: 20 nM
